Data: US7897593B2, “HIV integrase inhibitors” (priority 2006, dated 2011)
Where two headings read alike, the source gives them in different places.

Assays:
[1] = target: T1, purified integrase (Human immunodeficiency virus type 1 group M subtype B, UniProt P12497); assay: HIV-Integrase binding assay (competition with radiolabeled integrase inhibitor); conditions: competition with [3H]-labeled integrase inhibitor; Cheng and Prusoff
T1 construct: Recombinant integrase (0.26 ng) was incubated with the beads
Protocol: HIV-Integrase binding assay. In this assay competitive binding experiments with test compounds and a radiolabeled integrase inhibitor (compound A) are performed against purified integrase. […] Binding reactions were carried out in 96-well white polystyrene assay plates (Corning, #3600). The following was added sequentially to each well: 20 μl of water or 20μl of human serum (Cellgro Cat# 35-060-CL), 5 μl of serially diluted compound (in 50% DMSO/50% integrase SPA buffer), 5 μl of [^3H]-compound I (6,000 cpm/μl in SPA buffer) and 20 μl of bead/DNA/enzyme complex. The plates were shaken for 2 hours and then allowed to sit at room temperature without shaking overnight. The [^3H]-compound I binding was measured using a Topcount scintillation counter. Cheng and Prusoff equations were used to convert the inhibition of compound 1 binding into the corresponding Ki value. Activity equal to A refers to a compound having Ki=0.001 to 0.003 μM while B and C denote compounds having Ki=0.003 to 0.05 μM and Ki≧0.050 μM respectively.

[2] = system: recombinant NL-Rluc virus; assay: Inhibition of HIV replication; format: cell-based; conditions: three serum conditions described, the one tabulated is not stated
[3] = Human immunodeficiency virus 1, read-out: Antiviral Activity, NL-RLuc virus

## CC(=O)N1CCC2(CC1)OCCCn1c2nc(C(=O)NCc2ccc(F)cc2)c(O)c1=O [Example 57, 1-Acetyl-N-(4-fluorobenzyl)-3′-hydroxy-4′-oxo-4′,6′,7′,8′-tetrahydrospiro-[piperidine-4,10′-pyrimido[2,1-c][1,4]oxazepine]-2′-carboxamide]
[1]
  Ki: 1 to 3 nM
[2]; [3]
  EC50: 1 to 10 nM

## Cc1ncnn1-c1cc(F)ccc1CNC(=O)c1nc2n(c(=O)c1O)CCCOC21CCN(S(C)(=O)=O)CC1 [Example 62]
[1]
  Ki: 3 to 50 nM
[2]; read-out: Antiviral Activity, NL-RLuc virus
  EC50: 10 to 100 nM

## CS(=O)(=O)N1CCC2(CC1)OCCCn1c2nc(C(=O)NCc2ccc(F)cc2)c(O)c1=O [Example 60]
[1]
  Ki: 1 to 3 nM
[2]; [3]
  EC50: 1 to 10 nM

## Cc1nnc(C(=O)N2CCC3(C2)OCCn2c3nc(C(=O)NCc3ccc(F)cc3-n3ncnc3C)c(O)c2=O)o1 (stereo not shown) [Example 46, N-(4-Fluoro-2-(5-methyl-1H-1,2,4-triazol-1-yl)benzyl)-3-hydroxy-1′-(5-methyl-1,3,4-oxadiazole-2-carbonyl)-4-oxo-6,7-dihydro-4H-spiro[pyrimido[2,1-c][1,4]oxazine-9,3′-pyrrolidine]-2-carboxamide]
[1]
  Ki: 3 to 50 nM
[2]; [3]
  EC50: > 100 nM

## Cc1nnc(C(=O)N2CCC3(CC2)NCCn2c3nc(C(=O)NCc3ccc(F)cc3)c(O)c2=O)o1 [Example 35, N-(4-Fluorobenzyl)-3′-hydroxy-1-(5-methyl-1,3,4-oxadiazole-2-carbonyl)-4′-oxo-4′,6′,7′,8′-tetrahydrospiro[piperidine-4,9′-pyrazino[1,2-a]pyrimidine]-2′-carboxamide]
[1]
  Ki: 3 to 50 nM
[2]; [3]
  EC50: 10 to 100 nM
